Patent US9708314B2, “Heterocyclic amide compound” (NISSAN CHEMICAL INDUSTRIES, LTD., priority 2013, dated 2017)

Tests used:
Type in all cases: in vivo
[1] = test system: Echinochloa crus-galli var. crus-galli; test: Test Example 3: herbicidal effect by application to foliage (Wagner pot, water depth 0.1-0.5 cm); conditions: Nineteenth Table; application to foliage; application herbicide amount 320 g/ha
Procedure, shortened: (§1)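 Wagner pot foliar test: sow, grow 14 d (25–30 °C), spray diluted emulsion at set g/ha, score after 3 wk; 0 ≤5%, 5 ≥90% herbicidal ratio.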

Leptochloa chinensis = test: as above; conditions: Nineteenth Table; application to foliage; application herbicide amount 320 g/ha
Procedure, shortened: as §1

Cyperus difformis = test: as above; conditions: Nineteenth Table; application to foliage; application herbicide amount 320 g/ha
Procedure, shortened: as §1

Amaranthus retroflexus = test: Test Example 4: herbicidal effect by application to foliage (diluvial soil, plastic box); conditions: foliage application, 320 g/ha
Procedure, shortened: (§2)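 Seeds sown in sterilized diluvial soil, covered ~1.5 cm, grown 14 days in greenhouse at 25° C. to 30° C. Emulsion formulation diluted in water to set rate (g/ha) and sprayed onto stems and leaves. Effect scored visually 3 weeks later on 0–5 scale (5 = ≥90% herbicidal ratio, 0 = ≤5%).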

[2] = test system: Echinochloa crus-galli var. crus-galli; test: as above; conditions: foliage application, 320 g/ha
Procedure, shortened: as §2

Galium spurium = test: as above; conditions: foliage application, 320 g/ha
Procedure, shortened: as §2

Abutilon theophrasti = test: as above; conditions: foliage application, 320 g/ha
Procedure, shortened: as §2

Apera spica-venti. = test: as above; conditions: foliage application, 320 g/ha
Procedure, shortened: as §2

Setaria viridis = test: as above; conditions: foliage application, 320 g/ha
Procedure, shortened: as §2

Chenopodium album = test: as above; conditions: foliage application, 320 g/ha
Procedure, shortened: as §2

Digitaria ciliaris = test: as above; conditions: foliage application, 320 g/ha
Procedure, shortened: as §2

Veronica persica = test: as above; conditions: foliage application, 320 g/ha
Procedure, shortened: as §2

Lolium multiflorum Lam. = test: as above; conditions: foliage application, 320 g/ha
Procedure, shortened: as §2

Avena fatua = test: as above; conditions: foliage application, 320 g/ha
Procedure, shortened: as §2

Alopecurus myosuroides = test: as above; conditions: foliage application, 320 g/ha
Procedure, shortened: as §2

Stellaria media = test: as above; conditions: foliage application, 320 g/ha
Procedure, shortened: as §2

[3] = test system: directly sowed Oryza sativa; test: Test Example 4: effect on crop by application to foliage (diluvial soil, plastic box); conditions: foliage application, 320 g/ha
Procedure, shortened: as §2

[4] = test system: Beta vulgaris ssp. vulgaris; test: as above; conditions: foliage application, 320 g/ha
Procedure, shortened: as §2

Brassica campestris L. = test: as above; conditions: foliage application, 320 g/ha
Procedure, shortened: as §2

Zea mays = test: as above; conditions: foliage application, 320 g/ha
Procedure, shortened: as §2

Glycine max = test: as above; conditions: foliage application, 320 g/ha
Procedure, shortened: as §2

Triticum aestivum = test: as above; conditions: foliage application, 320 g/ha
Procedure, shortened: as §2

Compound | H (herbicidal effect grade) [1] | D (herbicidal effect grade) (Leptochloa chinensis) | E (herbicidal effect grade) (Cyperus difformis) | N (Amaranthus retroflexus) herbicidal effect grade (Amaranthus retroflexus) | H (Echinochloa crus-galli var. crus-galli) herbicidal effect grade [2] | Q (Galium spurium) herbicidal effect grade (Galium spurium) | M (Abutilon theophrasti) herbicidal effect grade (Abutilon theophrasti) | L (Apera spica-venti.) herbicidal effect grade (Apera spica-venti.) | G (Setaria viridis) herbicidal effect grade (Setaria viridis) | O (Chenopodium album) herbicidal effect grade (Chenopodium album) | F (Digitaria ciliaris) herbicidal effect grade (Digitaria ciliaris) | R (Veronica persica) herbicidal effect grade (Veronica persica) | K (Lolium multiflorum Lam.) herbicidal effect grade (Lolium multiflorum Lam.) | I (Avena fatua) herbicidal effect grade (Avena fatua) | J (Alopecurus myosuroides) herbicidal effect grade (Alopecurus myosuroides) | P (Stellaria media) herbicidal effect grade (Stellaria media) | d (directly sowed Oryza sativa) effect on crop grade [3] | f (Beta vulgaris ssp. vulgaris) effect on crop grade [4] | g (Brassica campestris L.) effect on crop grade (Brassica campestris L.) | b (Zea mays) effect on crop grade (Zea mays) | also measured
Cn1nnnc1NC(=O)c1ccc(C(F)(F)F)n2c([S+](C)[O-])nnc12 (centres unmarked) [2-067] | 5 (Herbicidal ratio of 90% or more (almost completely withered)) | 5 (Herbicidal ratio of 90% or more (almost completely withered)) | 5 (Herbicidal ratio of 90% or more (almost completely withered)) | 5 (Herbicidal ratio of 90% or more (almost completely withered)) | 5 (Herbicidal ratio of 90% or more (almost completely withered)) | 4 (Herbicidal ratio of 70% or more and less than 90%) | 5 (Herbicidal ratio of 90% or more (almost completely withered)) | 3 (Herbicidal ratio of 40% or more and less than 70%) | 5 (Herbicidal ratio of 90% or more (almost completely withered)) | 5 (Herbicidal ratio of 90% or more (almost completely withered)) | 5 (Herbicidal ratio of 90% or more (almost completely withered)) | 5 (Herbicidal ratio of 90% or more (almost completely withered)) | 4 (Herbicidal ratio of 70% or more and less than 90%) | 5 (Herbicidal ratio of 90% or more (almost completely withered)) | 4 (Herbicidal ratio of 70% or more and less than 90%) | 5 (Herbicidal ratio of 90% or more (almost completely withered)) | 5 (Herbicidal ratio of 90% or more (almost completely withered)) | 5 (Herbicidal ratio of 90% or more (almost completely withered)) | 5 (Herbicidal ratio of 90% or more (almost completely withered)) | 5 (Herbicidal ratio of 90% or more (almost completely withered)) | c (Glycine max) effect on crop grade (Glycine max): 4 (Herbicidal ratio of 70% or more and less than 90%); e (Triticum aestivum) effect on crop grade (Triticum aestivum): 4 (Herbicidal ratio of 70% or more and less than 90%)
COCCNc1nnc2c(C(=O)Nc3nnnn3C)ccc(C(F)(F)F)n12 [2-074] | 5 (Herbicidal ratio of 90% or more (almost completely withered)) | 5 (Herbicidal ratio of 90% or more (almost completely withered)) | 4 (Herbicidal ratio of 70% or more and less than 90%) | 5 (Herbicidal ratio of 90% or more (almost completely withered)) | 5 (Herbicidal ratio of 90% or more (almost completely withered)) | 3 (Herbicidal ratio of 40% or more and less than 70%) | 4 (Herbicidal ratio of 70% or more and less than 90%) | 3 (Herbicidal ratio of 40% or more and less than 70%) | 4 (Herbicidal ratio of 70% or more and less than 90%) | 5 (Herbicidal ratio of 90% or more (almost completely withered)) | 5 (Herbicidal ratio of 90% or more (almost completely withered)) | 5 (Herbicidal ratio of 90% or more (almost completely withered)) | 3 (Herbicidal ratio of 40% or more and less than 70%) | 4 (Herbicidal ratio of 70% or more and less than 90%) | 3 (Herbicidal ratio of 40% or more and less than 70%) | 4 (Herbicidal ratio of 70% or more and less than 90%) | 4 (Herbicidal ratio of 70% or more and less than 90%) | 5 (Herbicidal ratio of 90% or more (almost completely withered)) | 4 (Herbicidal ratio of 70% or more and less than 90%) | 5 (Herbicidal ratio of 90% or more (almost completely withered)) | c (Glycine max) effect on crop grade (Glycine max): 3 (Herbicidal ratio of 40% or more and less than 70%); e (Triticum aestivum) effect on crop grade (Triticum aestivum): 3 (Herbicidal ratio of 40% or more and less than 70%)
